Series [1] can be described thus: Dose-dependent toxicity of medicated feed in NPcis mice. The series is classed as in vivo. How it is done:
(§1) At day 60 after birth, heterozygous mice were started on the medicated feed or water. The mouse diet consisting of 45 kcal % fat containing soybean oil and lard for fat was used as the control feed. […] Sulindac was added to drinking water at 160 ppm (0.5 mg/day) in 4 mM sodium phosphate buffer as previously described. Animals were palpated weekly for tumors and survival and cause of death were recorded.
This range was calculated based on previously established maximal dose of 50 mg/kg MBZ via oral gavage and the estimated daily food intake of a mouse. Mice were weighed weekly and examined for signs of toxicity over 4 weeks.

Another series deals with NF90-8 cells. Kind of series: Cell proliferation assay (Cell Counting Kit-8), NF90-8. The series is classed as cell-based. The conditions noted are these: Homo sapiens, 72 h. How it is done: (§2) The human NF1-associated MPNST cell line NF90.8 was privately provided and sNF96.2 was purchased from the American Type Culture Collection. […] These cell lines were not authenticated. All cells were tested and found free of mycoplasma contamination. A cell proliferation assay was performed using Cell Counting Kit-8. Cells in 100 μL media in a 96-well plate were incubated with 10 μL of WST-8, a tetrazolium salt, at 37° C. in a tissue culture incubator. Absorbance was measured at 450 nm. Half maximal inhibitory concentrations (IC50s) were determined by incubating cells at a range of concentrations for 72 h and were calculated using the log (inhibitor) vs. response function and non-linear fit. Human MPNST cells NF90-8 and sNF96.2, both derived from NF1 patients, were treated with various MBZ concentrations for 72 h. […] Because NF1-associated tumors are mainly driven by Ras hyperactivation, MBZ's ability to inhibit Ras activity in the NF90-8 cell line was studied by exposing NF90-8 cells to different concentrations of MBZ (0.2 and 1 μM) for 24 h. […] This confirmed the Ras inhibitory effect of MBZ in vitro.

The subject of another series is pERK. The experiment in a line: Immunohistochemistry of pERK1/2 and ERK1/2 in tumors of NPcis mice. The series is classed as in vivo. The conditions noted are these: sarcomas of NPcis mice, 195 mg/kg diet. How it is done:
Mouse tumors were first fixed by formalin and embedded in paraffin. For hematoxylin & eosin (H&E) staining, the section was de-paraffinized and stained by the standard hematoxylin and eosin procedure to visualize tissue structures. For immunostaining, rabbit anti-Erk1/2 and anti-pErk1/2 antibodies were used. Sections were de-paraffinized using a standard procedure and blocked using 1.9% H2O2 in methanol at room temperature for 10 min. Sections were heated at 100° C. for 20 min in the antigen retrieval citrate solution and blocked by the serum-free protein blocker for 5 min at room temperature. After incubation with the rabbit anti-Erk1/2 or anti-pErk1/2 antibody diluted at 1:50 overnight at 4° C., biotin-conjugated anti-rabbit IgG was applied for 20 min at room temperature, followed by washing and incubation with streptavidin peroxidase for 15 min at room temperature. Antibody binding was visualized by the 3,3′-Diaminobenzidine (DAB) chromogen system. Subsequently, sections were counterstained by hematoxylin. Immunohistochemistry (IHC) quantification of representative tumor tissue sections was carried out with open source software using JPEG files. Mean optical density (OD) was calculated as the log average (maximal intensity/mean intensity) after image processing with color deconvolution and background subtraction. […]

Another series has as its system sNF96.2 cells. The experiment in a line: Cell proliferation assay (Cell Counting Kit-8), sNF96.2. The series is classed as cell-based. The conditions noted are these: Homo sapiens, 72 h. How it is done:
as §2

Series [2] concerns GTP-bound Ras in NF90-8 cells. The experiment in a line: Ras activity assay (Active Ras Detection Kit, GST-Raf1-RBD pull-down). The series is classed as cell-based, human. The conditions noted are these: 0.2 and 1 μM, 24 h. How it is done: A Ras activity assay was performed according to the manufacturer's instructions for the Active Ras Detection Kit. Briefly, cells were lysed with the Lysis/Binding/Wash buffer and pelleted, then the supernatant was used as the cell lysate. In the positive control, 5 μL of 10 mM GTPγS was added to 500 μL of lysates and incubated at 30° C. for 15 min. Cell lysates were incubated with glutathione resin, together with the purified GST-Raf1-RBD protein at 4° C. for 1 h in a spin cup. The resin was washed, and the bound proteins were eluted by incubating with dithiothreitol (DTT)-containing sample buffer at RT for 2 min. Eluted samples were heated and analyzed by anti-Ras Western blotting. Human MPNST cells NF90-8 and sNF96.2, both derived from NF1 patients, were treated with various MBZ concentrations for 72 h. […] Because NF1-associated tumors are mainly driven by Ras hyperactivation, MBZ's ability to inhibit Ras activity in the NF90-8 cell line was studied by exposing NF90-8 cells to different concentrations of MBZ (0.2 and 1 μM) for 24 h. […] This confirmed the Ras inhibitory effect of MBZ in vitro.

Series [3] has as its system NPcis (cis Nf1+/-; Tp53+/-) mice. Kind of series: Chemoprevention in NPcis mice (tumor onset, survival, cause of death). Type of series: in vivo. Conditions: for effect on survival of non-solid malignancy-related and unknown causes of death / effect on overall median survival vs controls / overall median survival: NPcis mice; for effect on survival of non-solid malignancy-related and unknown causes of death: male and female; for effect on overall median survival vs controls: treatment from day 60; for overall median survival: MBZ 195 mg/kg feed, CXB 1000 ppm feed, SUL 160 ppm drinking water; for increase in median survival: 195 mg/kg feed.
Description: NPcis (cis Nf1+/−; Tp53+/−) mice in C57BL/6 background (B6;129S2-Trp53tm1Tyj Nf1tm1Tyj/J) were bred by pairing male heterozygous NPcis mice with the female wildtype mice to better generate MPNST animals. Since homozygous Nf1/Tp53 KO mice are embryonically lethal, only heterozygous and wildtype pups were born. Like NF1 patients, NPcis mice spontaneously develop predominantly soft tissue sarcomas including MPNSTs (genetically engineered murine (GEM) PNSTs) and malignant Triton tumors, as well as rhabdomyosarcomas and astrocytomas that severely limit their life expectancy to ˜5 months. The addition of heterozygous Tp53 knock-out (KO) accelerates the cancer development, which mimics the secondary mutations required for the transformation to malignancies such as MPNST, where the second copy of Nf1 is also lost due to the loss of heterozygosity (LOH).
as §1
In order to investigate the tumor-preventative effects of MBZ, continuous oral administration of MBZ via 195 mg/kg feed was initiated at 60 days after birth, before the formation of any malignancies. Mice were palpated weekly for the presence of any tumors. For the purpose of this study, ‘Solid Malignancies’ were defined as any type of sarcoma and astrocytoma, in addition to neuroblastomas and carcinomas, while ‘Others’ included non-solid malignancies such as lymphomas, leukemias and unknown causes of death.

[4] abbreviates: 195 mg/kg feed from day 60, solid malignancies, male and female combined.

This note sets out measurements from patent US11850235B2, “Preventative effect of mebendazole against malignancies in neurofibromatosis” (priority 2021, dated 2023).

The IC50 is the concentration that inhibits the measured activity by half.

Turning to `COC(=O)Nc1nc2ccc(C(=O)c3ccccc3)cc2[nH]1` [MBZ, mebendazole], the “tolerability of long-term daily continuous administration” value in series [1] (195 mg/kg feed, started 60 days after birth, male and female) is reported as “well tolerated”. Further, in series [1] (250 and 215 mg/kg diets, over 4 weeks), the signs of toxicity entry is reported as “excessive toxicity”. For the same compound, the weight loss in series [1] (250 and 215 mg/kg diets, over 4 weeks, male and female NPcis mice) is 10-15%. In the series with NF90-8 cells, this compound yielded an IC50 of 0.18 µM. Also, in the series with pERK, the “ERK staining, mean intensity” value is on record as 0.07. The “pERK DAB staining, mean optical density (OD)” value in the series on pERK (three tumor samples) is 0.02. For the same compound, the midpoint of inhibition with sNF96.2 cells, the IC50, lay at 0.32 µM. Besides, the “activated form of GTP-bound Ras” value in series [2] is “reduced in MBZ-treated NF90-8 cells in a concentration-dependent manner”. In series [3] (setting [4]), the “delay of tumor occurrence and median mortality vs control” value is reported as 32 days; the “tumor occurrence and median mortality” value is 192 days. In addition, in series [3], the “effect on survival of non-solid malignancy-related and unknown causes of death” value was “did not affect”; the “effect on overall median survival vs controls” value is on record as “significantly increased”; the overall median survival is listed as 199 days. The “increase in median survival” value in series [3] (female mice, solid malignancies) is 14 days. Moreover, the “increase in median survival” value in series [3] (male mice, solid malignancies) was determined as 34.5 days. Also, the “reduction in solid cancer-related causes of death” value in series [3] (vs control NPcis mice) was ~25%.
As for `CC1=C(CC(=O)O)c2cc(F)ccc2/C1=C\c1ccc([S+](C)[O-])cc1` (stereo not shown) [SUL, sulindac], in series [3], the “effect on survival of non-solid malignancy-related and unknown causes of death” value is on record as “neither SUL nor CXB had an effect”; the “effect on overall median survival vs controls” value was “failed to demonstrate any effect”; the overall median survival was 171.5 days.
